We go through 28 compounds from patent US20160289186A1, “FLUOROMETHYL-SUBSTITUTED PYRROLE CA[…]” (Grunenthal GmbH, priority 2013, published 2016).

T1 sequence (Q00975 whole entry): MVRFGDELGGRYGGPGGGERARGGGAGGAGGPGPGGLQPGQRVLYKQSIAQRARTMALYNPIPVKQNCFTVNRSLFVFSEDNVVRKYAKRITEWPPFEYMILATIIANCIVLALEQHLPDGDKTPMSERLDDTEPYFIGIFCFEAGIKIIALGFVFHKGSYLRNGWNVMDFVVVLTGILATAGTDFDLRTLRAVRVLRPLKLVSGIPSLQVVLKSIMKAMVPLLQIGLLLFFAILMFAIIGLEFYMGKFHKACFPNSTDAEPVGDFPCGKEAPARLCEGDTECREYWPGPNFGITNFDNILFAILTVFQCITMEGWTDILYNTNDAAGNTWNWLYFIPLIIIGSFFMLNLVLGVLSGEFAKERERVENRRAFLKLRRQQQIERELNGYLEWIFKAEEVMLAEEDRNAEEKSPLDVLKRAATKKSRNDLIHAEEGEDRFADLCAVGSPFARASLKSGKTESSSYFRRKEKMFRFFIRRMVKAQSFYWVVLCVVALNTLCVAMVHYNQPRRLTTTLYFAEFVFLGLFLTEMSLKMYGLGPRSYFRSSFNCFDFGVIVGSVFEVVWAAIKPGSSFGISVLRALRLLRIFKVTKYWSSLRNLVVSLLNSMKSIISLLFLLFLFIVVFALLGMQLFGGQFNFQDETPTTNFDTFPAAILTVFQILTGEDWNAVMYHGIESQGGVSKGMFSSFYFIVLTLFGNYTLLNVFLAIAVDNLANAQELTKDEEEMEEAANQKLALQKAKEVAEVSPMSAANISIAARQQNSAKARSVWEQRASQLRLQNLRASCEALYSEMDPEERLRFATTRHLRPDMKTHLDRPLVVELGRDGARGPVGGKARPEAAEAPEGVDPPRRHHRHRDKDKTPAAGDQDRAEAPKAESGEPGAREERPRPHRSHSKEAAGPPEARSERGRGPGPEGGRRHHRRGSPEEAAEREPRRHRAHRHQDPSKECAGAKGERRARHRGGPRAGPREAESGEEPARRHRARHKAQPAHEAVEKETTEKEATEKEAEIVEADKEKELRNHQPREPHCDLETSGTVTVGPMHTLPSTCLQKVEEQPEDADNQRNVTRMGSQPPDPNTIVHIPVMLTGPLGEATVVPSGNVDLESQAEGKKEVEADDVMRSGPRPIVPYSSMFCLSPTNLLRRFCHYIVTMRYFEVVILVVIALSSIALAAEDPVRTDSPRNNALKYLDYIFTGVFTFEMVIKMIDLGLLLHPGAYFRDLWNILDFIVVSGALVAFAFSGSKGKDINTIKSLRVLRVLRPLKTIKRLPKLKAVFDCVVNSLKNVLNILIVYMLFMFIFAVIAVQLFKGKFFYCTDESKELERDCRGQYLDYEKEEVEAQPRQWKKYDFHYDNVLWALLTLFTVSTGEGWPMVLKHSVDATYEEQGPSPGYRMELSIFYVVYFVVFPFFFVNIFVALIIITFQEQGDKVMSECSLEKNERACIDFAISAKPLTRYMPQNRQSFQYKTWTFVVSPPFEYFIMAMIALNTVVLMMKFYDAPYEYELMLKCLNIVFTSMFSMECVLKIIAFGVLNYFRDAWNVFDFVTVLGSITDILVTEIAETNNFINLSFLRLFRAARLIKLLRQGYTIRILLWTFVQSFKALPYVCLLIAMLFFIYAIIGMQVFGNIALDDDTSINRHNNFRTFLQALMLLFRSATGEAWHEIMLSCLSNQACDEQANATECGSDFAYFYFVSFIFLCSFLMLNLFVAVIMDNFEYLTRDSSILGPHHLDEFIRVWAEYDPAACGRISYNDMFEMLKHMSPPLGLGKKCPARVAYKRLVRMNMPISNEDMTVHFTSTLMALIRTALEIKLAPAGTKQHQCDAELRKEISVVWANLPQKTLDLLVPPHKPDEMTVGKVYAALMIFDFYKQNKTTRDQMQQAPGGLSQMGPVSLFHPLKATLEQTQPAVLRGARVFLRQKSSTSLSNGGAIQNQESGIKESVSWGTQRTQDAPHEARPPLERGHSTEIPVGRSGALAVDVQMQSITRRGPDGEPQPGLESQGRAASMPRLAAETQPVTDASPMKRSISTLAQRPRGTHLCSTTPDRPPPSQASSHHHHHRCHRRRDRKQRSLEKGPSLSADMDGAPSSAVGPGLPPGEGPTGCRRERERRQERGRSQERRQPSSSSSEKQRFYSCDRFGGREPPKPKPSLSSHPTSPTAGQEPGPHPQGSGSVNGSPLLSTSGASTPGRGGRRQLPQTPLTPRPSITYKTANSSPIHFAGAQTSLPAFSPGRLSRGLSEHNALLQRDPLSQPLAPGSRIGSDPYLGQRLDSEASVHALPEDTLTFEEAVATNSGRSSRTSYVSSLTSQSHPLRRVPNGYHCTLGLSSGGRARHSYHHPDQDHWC
T1 sequence (P54284 whole entry, further chain): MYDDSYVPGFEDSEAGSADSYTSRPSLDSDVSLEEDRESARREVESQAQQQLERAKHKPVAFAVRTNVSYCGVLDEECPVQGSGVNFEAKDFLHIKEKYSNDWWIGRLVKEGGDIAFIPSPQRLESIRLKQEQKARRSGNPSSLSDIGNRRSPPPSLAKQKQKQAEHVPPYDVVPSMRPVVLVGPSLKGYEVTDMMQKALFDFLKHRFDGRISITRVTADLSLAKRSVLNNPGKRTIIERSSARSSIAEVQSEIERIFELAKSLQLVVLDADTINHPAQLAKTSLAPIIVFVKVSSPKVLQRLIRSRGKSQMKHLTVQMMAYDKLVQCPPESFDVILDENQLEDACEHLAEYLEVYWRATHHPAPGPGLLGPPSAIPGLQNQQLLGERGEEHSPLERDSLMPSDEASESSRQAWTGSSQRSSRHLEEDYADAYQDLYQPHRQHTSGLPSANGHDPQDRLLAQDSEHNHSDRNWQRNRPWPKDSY
T1 sequence (P54289 25-1103, further chain): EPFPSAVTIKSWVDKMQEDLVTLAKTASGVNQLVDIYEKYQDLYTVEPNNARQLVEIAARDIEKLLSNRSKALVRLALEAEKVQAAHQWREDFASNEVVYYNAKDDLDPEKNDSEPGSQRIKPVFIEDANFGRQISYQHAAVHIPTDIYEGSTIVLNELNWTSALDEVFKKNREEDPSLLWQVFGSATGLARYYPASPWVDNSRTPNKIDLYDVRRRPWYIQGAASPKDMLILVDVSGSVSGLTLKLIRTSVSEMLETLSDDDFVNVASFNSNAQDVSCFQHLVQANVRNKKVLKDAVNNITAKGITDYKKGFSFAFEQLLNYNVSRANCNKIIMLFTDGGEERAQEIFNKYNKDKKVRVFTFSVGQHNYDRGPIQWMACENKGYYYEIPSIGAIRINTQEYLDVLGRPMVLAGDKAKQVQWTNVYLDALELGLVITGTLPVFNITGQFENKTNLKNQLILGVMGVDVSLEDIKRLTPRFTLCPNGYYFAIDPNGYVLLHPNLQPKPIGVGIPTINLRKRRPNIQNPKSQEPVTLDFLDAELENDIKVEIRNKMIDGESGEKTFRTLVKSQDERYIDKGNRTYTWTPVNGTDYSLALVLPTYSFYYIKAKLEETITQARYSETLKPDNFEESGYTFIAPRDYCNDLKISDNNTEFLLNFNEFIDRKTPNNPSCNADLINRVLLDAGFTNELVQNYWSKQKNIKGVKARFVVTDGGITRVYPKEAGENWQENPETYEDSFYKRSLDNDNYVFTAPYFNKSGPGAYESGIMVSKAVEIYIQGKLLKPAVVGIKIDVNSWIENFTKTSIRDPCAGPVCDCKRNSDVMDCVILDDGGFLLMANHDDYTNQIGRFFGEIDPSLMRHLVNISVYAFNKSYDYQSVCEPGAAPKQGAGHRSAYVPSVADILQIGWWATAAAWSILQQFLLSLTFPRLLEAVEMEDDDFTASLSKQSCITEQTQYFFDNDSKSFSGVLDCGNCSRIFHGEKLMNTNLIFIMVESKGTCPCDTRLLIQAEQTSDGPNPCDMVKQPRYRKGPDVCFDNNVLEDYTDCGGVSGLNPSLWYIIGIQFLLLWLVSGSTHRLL

One test has as its target T1, Human CaV2.2 channels (Homo sapiens, UniProt Q00975).
T1 construct: expressed in transfected cells; host or cells: HEK293
Nature of the test: Fluorescent (FLIPR) assay for CaV2.2 channels using potassium depolarization to induce channel opening. It is filed as cell-based. The settings on record: 3 μM compound; 30 mM KCl assay buffer (inactivated channel state); HEK293 cells stably expressing human CaV2.2. In short, it runs like this:
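HEK293 cells stably co-expressing human CaV2.2 with α2δ and β subunits plus Kir2.3, Fluo-4 loaded; compounds preincubated 15 min at 25 °C in 1 mM or 30 mM KCl buffer (inactivated state), pH 7.4. Depolarized by KCl addition; baseline-normalized peak fluorescence (ex 480/em 535 nm) gave inhibition.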
Consider `CC(C)Cn1c(C(F)(F)F)cc(-c2ccc(F)cc2)c1C(=O)N(C)Cc1cnc(N(C)C)nc1` [Example 060], for which the “Activity Category: %-Inhib (CaV2.2) @3 μM @30 mM KCl” value is “A (%-Inhibition >95%)”.

The test is the same for the next values; noted with them: 3 μM compound; 30 mM KCl assay buffer (inactivated channel state); HEK293 cells stably expressing human CaV2.2; read-out: Activity Category: %-Inhib (CaV2.2) @3 μM @30 mM KCl.
Regarding `Cc1c(-c2ccc(Cl)cc2)c(C(=O)N(C)CCS(C)(=O)=O)n(CC(C)C)c1C(F)(F)F` [Example 061, 3-(4-Chlorophenyl)-N,4-dimethyl-1-(2-methyl-propyl)-N-(2-methylsulfonyl-ethyl)-5-(trifluoromethyl)-1H-pyrrole-2-carboxylic acid amide], the inhibition at 3 µM was above 95%.

Take `Cc1noc(C2CCN(C(=O)c3c(-c4ccc(Cl)cc4)c(C)c(C(F)(F)F)n3CC(C)C)CC2)n1` [Example 062, [3-(4-Chlorophenyl)-4-methyl-1-(2-methyl-propyl)-5-(trifluoromethyl)-1H-pyrrol-2-yl]-[4-(3-methyl-[1,2,4]oxadiazol-5-yl)-piperidin-1-yl]-methanone]: the inhibition at 3 µM lay within 75 to 95%.

As for `CC(C)Cn1c(C(F)(F)F)cc(-c2ccc(F)cc2)c1C(=O)N1CCNC(=O)C1` [Example 063, 4-[3-(4-Fluorophenyl)-1-(2-methyl-propyl)-5-(trifluoromethyl)-1H-pyrrole-2-carbonyl]-piperazin-2-one], the inhibition at 3 µM lay in the range of 40 to 75%.

In the case of `Cc1c(-c2ccc(Cl)cc2)c(C(=O)N2CCOC(C)(C)C2)n(CC(C)C)c1C(F)(F)F` [Example 064, [3-(4-Chlorophenyl)-4-methyl-1-(2-methyl-propyl)-5-(trifluoromethyl)-1H-pyrrol-2-yl]-(2,2-dimethyl-morpholin-4-yl)-methanone], the inhibition at 3 µM lay in the range of 75 to 95%.

In the case of `CC(C)Cn1c(C(F)(F)F)cc(-c2ccc(F)cc2)c1C(=O)N1CCOCC1` [Example 065, [3-(4-Fluorophenyl)-1-(2-methyl-propyl)-5-(trifluoromethyl)-1H-pyrrol-2-yl]-morpholin-4-yl-methanone], the inhibition at 3 µM was 75 to 95%.

In the case of `CC(C)Cn1c(C(F)(F)F)cc(-c2ccc(F)cc2)c1C(=O)NC1CC1` [Example 066, N-Cyclopropyl-3-(4-fluorophenyl)-1-(2-methyl-propyl)-5-(trifluoromethyl)-1H-pyrrole-2-carboxylic acid amide], the inhibition at 3 µM fell in the range of 75 to 95%.

In the case of `Cc1c(-c2ccc(Cl)cc2)c(C(=O)N(C)CC(C)(C)C#N)n(CC(C)C)c1C(F)(F)F` [Example 067, 3-(4-Chlorophenyl)-N-(2-cyano-2-methyl-propyl)-N,4-dimethyl-1-(2-methyl-propyl)-5-(trifluoromethyl)-1H-pyrrole-2-carboxylic acid amide], the inhibition at 3 µM lay within 40 to 75%.

With `Cc1c(-c2ccc(Cl)cc2)c(C(=O)N(C)CCS(C)(=O)=O)n(CC2(C)CC2)c1C(F)(F)F` [Example 068, 3-(4-Chlorophenyl)-N,4-dimethyl-1-[(1-methyl-cyclopropyl)-methyl]-N-(2-methylsulfonyl-ethyl)-5-(trifluoromethyl)-1H-pyrrole-2-carboxylic acid amide], the inhibition at 3 µM is above 95%.

Take `CN(Cc1cnc(N(C)C)nc1)C(=O)c1c(-c2ccc(F)cc2)cc(C(F)(F)F)n1CC1CCCO1` (stereo not shown) [Example 069, N-[(2-Dimethylamino-pyrimidin-5-yl)-methyl]-3-(4-fluorophenyl)-N-methyl-1-(tetrahydro-furan-2-yl-methyl)-5-(trifluoromethyl)-1H-pyrrole-2-carboxylic acid amide]: the inhibition at 3 µM is 75 to 95%.

For the compound `CN(C(=O)c1c(-c2ccc(F)cc2)cc(C(F)(F)F)n1CC1CCCO1)C1CCOCC1` (stereo not shown) [Example 070, 3-(4-Fluorophenyl)-N-methyl-1-(tetrahydro-furan-2-yl-methyl)-N-tetrahydro-pyran-4-yl-5-(trifluoromethyl)-1H-pyrrole-2-carboxylic acid amide], the inhibition at 3 µM lay within 75 to 95%.

Consider `CN(C(=O)c1c(-c2ccc(F)cc2)cc(C(F)(F)F)n1CC1CCCO1)C1CCS(=O)(=O)C1` (stereo not shown) [Example 071, N-(1,1-Dioxo-thiolan-3-yl)-3-(4-fluorophenyl)-N-methyl-1-(tetrahydro-furan-2-yl-methyl)-5-(trifluoromethyl)-1H-pyrrole-2-carboxylic acid amide], for which the inhibition at 3 µM was in the range of 40 to 75%.

For the compound `CN(CC(C)(C)C)C(=O)c1c(-c2ccc(F)cc2)cc(C(F)(F)F)n1CC1CCCO1` (stereo not shown) [Example 073, N-(2,2-Dimethyl-propyl)-3-(4-fluorophenyl)-N-methyl-1-(tetrahydro-furan-2-yl-methyl)-5-(trifluoromethyl)-1H-pyrrole-2-carboxylic acid amide], the inhibition at 3 µM fell in the range of 75 to 95%.

Regarding `CN(CC(C)(C)CO)C(=O)c1c(-c2ccc(F)cc2)cc(C(F)(F)F)n1CC1CCCO1` (stereo not shown) [Example 074, 3-(4-Fluorophenyl)-N-(3-hydroxy-2,2-dimethyl-propyl)-N-methyl-1-(tetrahydro-furan-2-yl-methyl)-5-(trifluoromethyl)-1H-pyrrole-2-carboxylic acid amide], the inhibition at 3 µM lay within 75 to 95%.

For the compound `Cc1cc(CN(C)C(=O)c2c(-c3ccc(F)cc3)cc(C(F)(F)F)n2CC2CCCO2)no1` (stereo not shown) [Example 075, 3-(4-Fluorophenyl)-N-methyl-N-[(5-methyl-isoxazol-3-yl)-methyl]-1-(tetrahydro-furan-2-yl-methyl)-5-(trifluoromethyl)-1H-pyrrole-2-carboxylic acid amide], the inhibition at 3 µM lay within 75 to 95%.

In the case of `Cc1cnc(CN(C)C(=O)c2c(-c3ccc(F)cc3)cc(C(F)(F)F)n2CC2CCCO2)cn1` (stereo not shown) [Example 077, 3-(4-Fluorophenyl)-N-methyl-N-[(5-methyl-pyrazin-2-yl)-methyl]-1-(tetrahydro-furan-2-yl-methyl)-5-(trifluoromethyl)-1H-pyrrole-2-carboxylic acid amide], the inhibition at 3 µM is 75 to 95%.

With `CN(CCS(C)(=O)=O)C(=O)c1c(-c2ccc(F)cc2)cc(C(F)(F)F)n1CC1CCCO1` (stereo not shown) [Example 078, 3-(4-Fluorophenyl)-N-methyl-N-(2-methylsulfonyl-ethyl)-1-(tetrahydro-furan-2-yl-methyl)-5-(trifluoromethyl)-1H-pyrrole-2-carboxylic acid amide], the inhibition at 3 µM was 40 to 75%.

In the case of `O=C1CN(C(=O)c2c(-c3ccc(F)cc3)cc(C(F)(F)F)n2CC2CCCO2)CCN1` (stereo not shown) [Example 079, 4-[3-(4-Fluorophenyl)-1-(tetrahydro-furan-2-yl-methyl)-5-(trifluoromethyl)-1H-pyrrole-2-carbonyl]-piperazin-2-one], the inhibition at 3 µM lay within 40 to 75%.

As to `CC1(C)CN(C(=O)c2c(-c3ccc(F)cc3)cc(C(F)(F)F)n2CC2CCCO2)CCO1` (stereo not shown) [Example 080, (2,2-Dimethyl-morpholin-4-yl)-[3-(4-fluorophenyl)-1-(tetrahydro-furan-2-yl-methyl)-5-(trifluoromethyl)-1H-pyrrol-2-yl]-methanone], the inhibition at 3 µM was in the range of 75 to 95%.

As for `O=C(c1c(-c2ccc(F)cc2)cc(C(F)(F)F)n1CC1CCCO1)N1CCOCC1` (stereo not shown) [Example 081, [3-(4-Fluorophenyl)-1-(tetrahydro-furan-2-yl-methyl)-5-(trifluoromethyl)-1H-pyrrol-2-yl]-morpholin-4-yl-methanone], the inhibition at 3 µM lay in the range of 40 to 75%.

For the compound `O=C(NC1CC1)c1c(-c2ccc(F)cc2)cc(C(F)(F)F)n1CC1CCCO1` (stereo not shown) [Example 082, N-Cyclopropyl-3-(4-fluorophenyl)-1-(tetrahydro-furan-2-yl-methyl)-5-(trifluoromethyl)-1H-pyrrole-2-carboxylic acid amide], the inhibition at 3 µM was 40 to 75%.

As to `CN(CC(C)(C)C)C(=O)c1c(-c2ccc(Cl)cc2)cc(C(F)(F)F)n1CC1CCCO1` (stereo not shown) [Example 083, 3-(4-Chlorophenyl)-N-(2,2-dimethyl-propyl)-N-methyl-1-(tetrahydro-furan-2-yl-methyl)-5-(trifluoromethyl)-1H-pyrrole-2-carboxylic acid amide], the inhibition at 3 µM fell in the range of 75 to 95%.

Consider `Cc1c(-c2ccc(Cl)cc2)c(C(=O)N2CCOC(C)(C)C2)n(CC2CC2)c1C(F)(F)F` [Example 084, [3-(4-Chlorophenyl)-1-(cyclopropyl-methyl)-4-methyl-5-(trifluoromethyl)-1H-pyrrol-2-yl]-(2,2-dimethyl-morpholin-4-yl)-methanone], for which the inhibition at 3 µM is above 95%.

As to `Cc1c(-c2ccc(Cl)cc2)c(C(=O)N2CCOC(C)(C)C2)n(CC2CCC2)c1C(F)(F)F` [Example 085, [3-(4-Chlorophenyl)-1-(cyclobutyl-methyl)-4-methyl-5-(trifluoromethyl)-1H-pyrrol-2-yl]-(2,2-dimethyl-morpholin-4-yl)-methanone], the inhibition at 3 µM fell in the range of 75 to 95%.

Turning to `Cc1c(-c2ccc(Cl)cc2)c(C(=O)N2CCOCC2)n(CC#CC2CC2)c1C(F)(F)F` [Example 086, [3-(4-Chlorophenyl)-1-(3-cyclopropyl-prop-2-ynyl)-4-methyl-5-(trifluoromethyl)-1H-pyrrol-2-yl]-morpholin-4-yl-methanone], the inhibition at 3 µM was above 95%.

With `Cc1c(-c2ccc(Cl)cc2)c(C(=O)N2CCOCC2)n(CC2(C)CC2)c1C(F)(F)F` [Example 087, [3-(4-Chlorophenyl)-4-methyl-1-[(1-methyl-cyclopropyl)-methyl]-5-(trifluoromethyl)-1H-pyrrol-2-yl]-morpholin-4-yl-methanone], the inhibition at 3 µM is above 95%.

As to `CN(CC(C)(C)C)C(=O)c1c(-c2ccc(Cl)cc2)cc(C(F)(F)F)n1CC1(N)CC1` [Example 088, 1-[(1-Amino-cyclopropyl)-methyl]-3-(4-chlorophenyl)-N-(2,2-dimethyl-propyl)-N-methyl-5-(trifluoromethyl)-1H-pyrrole-2-carboxylic acid amide], the inhibition at 3 µM was in the range of 75 to 95%.

Regarding `Cc1c(-c2ccc(Cl)cc2)c(C(=O)N2CCOCC2)n(CC2(O)CC2)c1C(F)(F)F` [Example 089, [3-(4-Chlorophenyl)-1-[(1-hydroxy-cyclopropyl)-methyl]-4-methyl-5-(trifluoromethyl)-1H-pyrrol-2-yl]-morpholin-4-yl-methanone], the inhibition at 3 µM was above 95%.
